Test results: PMC12024264, “Frog Skin Peptides Hylin-a1, AR-23, and RV-23: Promising Tools Against Carbapenem-Resistant Escherichia coli and Klebsiella pneumoniae Infections” (Antibiotics, 2025)
Values after ≈ are worked out from the molar mass of the structure shown. Like-named read-outs stand apart in the source and are kept apart here.

Key:
Assay in all cases: Antibiotic resistance profile of clinical isolate (Table S1)
K. pneumoniae 1711 = type: cell-based, Klebsiella pneumoniae
Experimental: (§1) Each strain was grown in Mueller Hinton Broth (MH Broth), and 5 × 10^5 CFU/mL was used to evaluate antibacterial activity. Clinical carbapenem-resistant K. pneumoniae and E. coli isolates were collected at the AOU of Virology and Microbiology of the University of Campania “Luigi Vanvitelli”. […]
(§2) Table S1. Antibiotic resistance profile of K. pneumoniae and E. coli clinical isolates . MIC: Minimum Inhibitory
(§3) Concentration was expressed in µg/mL; S: Sensible; I: Intermediate; R: Resistant.
(§4) Antibiotic Resistance Profile of the Clinical Isolated Bacteria
(§5) Antibiotics MIC (µg/mL) Interpretation […]

K. pneumoniae 1745 = type: cell-based, Klebsiella pneumoniae
Experimental: as §1, §2, §3, §4, §5

E. coli 2267 = type: cell-based, Escherichia coli
Experimental: as §1, §2, §3, §4, §5

K. pneumoniae 1746 = type: cell-based, Klebsiella pneumoniae
Experimental: as §1, §2, §3, §4, §5

K. pneumoniae 311 = type: cell-based, Klebsiella pneumoniae
Experimental: as §1, §2, §3, §4, §5

E. coli 1441 = type: cell-based, Escherichia coli
Experimental: as §1, §2, §3, §4, §5

E. coli 1376 = type: cell-based, Escherichia coli
Experimental: as §1, §2, §3, §4, §5

E. coli 3140 = type: cell-based, Escherichia coli
Experimental: as §1, §2, §3, §4, §5

E. coli 716 = type: cell-based, Escherichia coli
Experimental: as §1, §2, §3, §4, §5

[1] = Klebsiella pneumoniae, Table S1, K. pneumoniae 1711, read-out: MIC
[2] = Klebsiella pneumoniae, Table S1, K. pneumoniae 1745, read-out: MIC
[3] = Escherichia coli, Table S1, E. coli 2267, read-out: MIC

Row | Compound | Interpretation (K. pneumoniae 1711; Table S1, K. pneumoniae 1711) | Interpretation (K. pneumoniae 1745; Table S1, K. pneumoniae 1745) | Interpretation (E. coli 2267; Table S1, E. coli 2267) | Interpretation (K. pneumoniae 1746; Table S1, K. pneumoniae 1746) | Interpretation (K. pneumoniae 311; Table S1, K. pneumoniae 311) | Interpretation (E. coli 1441; Table S1, E. coli 1441) | Interpretation (E. coli 1376; Table S1, E. coli 1376) | Interpretation (E. coli 3140; Table S1, E. coli 3140) | Interpretation (E. coli 716; Table S1, E. coli 716) | MIC (K. pneumoniae 1711; [1]) | MIC (K. pneumoniae 311; Klebsiella pneumoniae, 311) | MIC (K. pneumoniae 1745; [2]) | MIC (K. pneumoniae 1746; Klebsiella pneumoniae, 1746) | MIC (E. coli 1441; Escherichia coli, 1441) | MIC (E. coli 1376; Escherichia coli, 1376) | MIC (E. coli 2267; [3]) | MIC (E. coli 3140; Escherichia coli, 3140) | MIC (E. coli 716; Escherichia coli, 716) | also measured
1 | CO/N=C(\C(=O)N[C@@H]1C(=O)N2C(C(=O)[O-])=C(C[N+]3(C)CCCC3)CS[C@H]12)c1csc(N)n1 [Cefepime] | R | R | R | – | – | – | – | – | – | – | – | – | – | – | – | – | – | – | –
2 | CC(C)(O/N=C(\C(=O)N[C@@H]1C(=O)N2C(C(=O)[O-])=C(C[N+]3(CCNC(=O)c4ccc(O)c(O)c4Cl)CCCC3)CS[C@H]12)c1csc(N)n1)C(=O)O [Cefiderocol] | I | – | – | S | – | – | – | – | – | – | – | – | – | – | – | – | – | – | –
3 | Trimethoprim/sulfamethoxazole | R | R | R | S | S | S | R | S | R | – | – | – | – | – | – | – | – | – | MIC (K. pneumoniae 1711; Table S1, K. pneumoniae 1711): > 4/76; MIC (K. pneumoniae 311; Table S1, K. pneumoniae 311): 2/38; MIC (K. pneumoniae 1745; Table S1, K. pneumoniae 1745): > 4/76; MIC (K. pneumoniae 1746; Table S1, K. pneumoniae 1746): ≤ 1/19; MIC (E. coli 1441; Table S1, E. coli 1441): ≤ 1/19; MIC (E. coli 1376; Table S1, E. coli 1376): > 4/76; MIC (E. coli 2267; Table S1, E. coli 2267): > 4/76; MIC (E. coli 3140; Table S1, E. coli 3140): ≤ 1/19; MIC (E. coli 716; Table S1, E. coli 716): > 4/76
4 | CO/N=C(\C(=O)N[C@@H]1C(=O)N2C(C(=O)O)=C(CSc3nc(=O)c(=O)[nH]n3C)CS[C@H]12)c1csc(N)n1 [Ceftriaxone] | R | R | R | R | R | R | R | S | R | > 4 µg/mL | > 4 µg/mL | > 4 µg/mL | > 4 µg/mL | > 4 µg/mL | > 4 µg/mL | > 4 µg/mL | ≤ 0.5 µg/mL | > 4 µg/mL | –
5 | CC1(C)S[C@@H]2[C@H](NC(=O)[C@H](N)c3ccccc3)C(=O)N2[C@H]1C(=O)O [Ampicillin] | R | R | R | R | R | R | R | R | R | – | > 8 µg/mL | – | > 8 µg/mL | > 8 µg/mL | > 8 µg/mL | – | > 8 µg/mL | > 8 µg/mL | MIC (K. pneumoniae 1711; Klebsiella pneumoniae, 1711): > 8 µg/mL; MIC (K. pneumoniae 1745; Klebsiella pneumoniae, 1745): > 8 µg/mL; MIC (E. coli 2267; Escherichia coli, 2267): > 8 µg/mL
6 | C[C@@H](O)[C@H]1C(=O)N2C(C(=O)O)=C(S[C@@H]3CN[C@H](C(=O)Nc4cccc(C(=O)O)c4)C3)[C@H](C)[C@H]12 [Ertapenem] | R | R | R | R | R | R | R | R | R | > 1 µg/mL | > 1 µg/mL | > 1 µg/mL | > 1 µg/mL | > 1 µg/mL | > 1 µg/mL | > 1 µg/mL | > 1 µg/mL | > 1 µg/mL | –
7 | CO[C@@]1(NC(=O)C(C(=O)O)c2ccsc2)C(=O)N2[C@@H](C(=O)O)C(C)(C)S[C@@H]21 (stereo partly shown) [Temocillin] | R | R | R | – | R | S | R | R | R | > 32 µg/mL | – | > 32 µg/mL | – | – | – | > 32 µg/mL | – | – | MIC (K. pneumoniae 311; Klebsiella pneumoniae, Table S1, K. pneumoniae 311, read-out: MIC): > 32 µg/mL; MIC (E. coli 1441; Escherichia coli, Table S1, E. coli 1441, read-out: MIC): 8 µg/mL (≈ 19.3 µM); MIC (E. coli 1376; Escherichia coli, Table S1, E. coli 1376, read-out: MIC): > 32 µg/mL; MIC (E. coli 3140; Escherichia coli, Table S1, E. coli 3140, read-out: MIC): > 32 µg/mL; MIC (E. coli 716; Escherichia coli, Table S1, E. coli 716, read-out: MIC): > 32 µg/mL
8 | CN(C)c1cc(NC(=O)CNC(C)(C)C)c(O)c2c1C[C@H]1C[C@H]3[C@H](N(C)C)C(O)=C(C(N)=O)C(=O)[C@@]3(O)C(O)=C1C2=O [Tigecycline] | – | – | R | – | – | S | S | – | R | – | – | – | – | ≤ 0.5 µg/mL | ≤ 0.5 µg/mL | > 2 µg/mL | – | > 2 µg/mL | –
9 | CCn1cc(C(=O)O)c(=O)c2cc(F)c(N3CCNCC3)cc21 [Norfloxacin] | – | – | – | – | – | – | – | S | – | – | – | – | – | – | – | – | ≤ 0.5 µg/mL | – | –
10 | CNC(C)C1CCC(N)C(OC2C(N)CC(N)C(OC3OCC(C)(O)C(NC)C3O)C2O)O1 (stereo not shown) [Gentamicin] | R | R | S | S | R | S | R | S | S | – | > 4 µg/mL | – | 2 µg/mL (≈ 4.19 µM) | ≤ 1 µg/mL | > 4 µg/mL | – | ≤ 1 µg/mL | ≤ 1 µg/mL | MIC (K. pneumoniae 1711; Klebsiella pneumoniae, 1711): > 4 µg/mL; MIC (K. pneumoniae 1745; Klebsiella pneumoniae, 1745): > 4 µg/mL; MIC (E. coli 2267; Escherichia coli, 2267): ≤ 1 µg/mL
11 | NCC[C@H](O)C(=O)N[C@@H]1C[C@H](N)[C@@H](O[C@H]2O[C@H](CN)[C@@H](O)[C@H](O)[C@H]2O)[C@H](O)[C@H]1O[C@H]1O[C@H](CO)[C@@H](O)[C@H](N)[C@H]1O [Amikacin] | S | S | S | S | S | S | R | S | S | ≤ 4 µg/mL | ≤ 4 µg/mL | 8 µg/mL (≈ 13.7 µM) | ≤ 4 µg/mL | ≤ 4 µg/mL | > 16 µg/mL | ≤ 4 µg/mL | ≤ 4 µg/mL | ≤ 4 µg/mL | –
12 | Piperacillin/tazobactam | R | R | R | R | R | R | R | R | R | – | – | – | – | – | – | – | – | – | MIC (K. pneumoniae 1711; Table S1, K. pneumoniae 1711): > 64/4; MIC (K. pneumoniae 311; Table S1, K. pneumoniae 311): > 64/4; MIC (K. pneumoniae 1745; Table S1, K. pneumoniae 1745): > 64/4; MIC (K. pneumoniae 1746; Table S1, K. pneumoniae 1746): 32/4; MIC (E. coli 1441; Table S1, E. coli 1441): > 64/4; MIC (E. coli 1376; Table S1, E. coli 1376): > 64/4; MIC (E. coli 2267; Table S1, E. coli 2267): > 64/4; MIC (E. coli 3140; Table S1, E. coli 3140): > 64/4; MIC (E. coli 716; Table S1, E. coli 716): > 64/4
13 | C[C@H]1[C@H](NC(=O)/C(=N\OC(C)(C)C(=O)O)c2csc(N)n2)C(=O)N1S(=O)(=O)O [Aztreonam] | R | R | R | – | – | – | – | – | – | – | – | – | – | – | – | – | – | – | –
14 | O=C1CN(/N=C/c2ccc([N+](=O)[O-])o2)C(=O)N1 [Nitrofurantoin] | – | – | – | – | – | – | – | S | – | – | – | – | – | – | – | – | ≤ 16 µg/mL | – | –
15 | C[C@H]1COc2c(N3CCN(C)CC3)c(F)cc3c(=O)c(C(=O)O)cn1c23 [Levofloxacin] | R | R | R | I | R | S | R | S | R | > 1 µg/mL | > 1 µg/mL | > 1 µg/mL | 1 µg/mL (≈ 2.77 µM) | ≤ 0.25 µg/mL | > 1 µg/mL | > 1 µg/mL | ≤ 0.25 µg/mL | > 1 µg/mL | –
16 | Ceftolozano tazobactam | R | R | R | R | R | R | R | R | R | – | – | – | – | – | – | – | – | – | MIC (K. pneumoniae 1711; Table S1, K. pneumoniae 1711): > 4/4; MIC (K. pneumoniae 311; Table S1, K. pneumoniae 311): > 4/4; MIC (K. pneumoniae 1745; Table S1, K. pneumoniae 1745): > 4/4; MIC (K. pneumoniae 1746; Table S1, K. pneumoniae 1746): > 4/4; MIC (E. coli 1441; Table S1, E. coli 1441): > 4/4; MIC (E. coli 1376; Table S1, E. coli 1376): > 4/4; MIC (E. coli 2267; Table S1, E. coli 2267): > 4/4; MIC (E. coli 3140; Table S1, E. coli 3140): > 4/4; MIC (E. coli 716; Table S1, E. coli 716): > 4/4
17 | C[C@@H]1O[C@@H]1P(=O)(O)O [Fosfomycin] | S | S | S | S | S | S | R | – | S | 32 µg/mL (≈ 232 µM) | ≤ 16 µg/mL | ≤ 16 µg/mL | ≤ 16 µg/mL | ≤ 16 µg/mL | > 64 µg/mL | ≤ 16 µg/mL | – | ≤ 16 µg/mL | –
18 | Colistin | – | – | – | S | – | – | – | – | – | – | – | – | – | – | – | – | – | – | MIC (K. pneumoniae 1746; Table S1, K. pneumoniae 1746): 0.25 µg/mL
19 | CO/N=C(\C(=O)N[C@@H]1C(=O)N2C(C(=O)O)=C(COC(N)=O)CS[C@H]12)c1ccco1 [Cefuroxime] | R | R | R | – | R | R | R | R | R | > 8 µg/mL | > 8 µg/mL | > 8 µg/mL | – | > 8 µg/mL | > 8 µg/mL | > 8 µg/mL | > 8 µg/mL | > 8 µg/mL | –
